# Assay: Solubility screening of bifenthrin in various solvents
# Type: physicochemical
# Conditions: not given
# Description: Four-milliliter (mL) vials are charged with bifenthrin (10 to 50 wt %), a stir bar, and solvent (90 to 50 wt %). The vials are capped and taped to seal. The vials are secured in a vial rack and shaken on a laboratory shaker for 12 hours at ambient lab temperature (21° C.) and humidity (51%). After 12 hours each sample set is evaluated for solubility of solid:
# Yes—Homogeneous clear solution
# No—Solids present in the sample
Compound,"Solubility of Bifenthrin, 10 wt %","Solubility of Bifenthrin, 20 wt %","Solubility of Bifenthrin, 30 wt %","Solubility of Bifenthrin, 40 wt %","Solubility of Bifenthrin, 50 wt %"
"CCCCOCCOCCOC(C)=O [BUTYL CARBITOL ™ ACETATE, diethylene glycol n-butyl ether acetate]",YES,YES,YES,NO,NO
"CC(O)COc1ccccc1 (centres unmarked) [DOWANOL ™ PPH, propylene glycol phenyl ether]",YES,NO,NO,NO,NO

# Now from value to compound:
"Solubility of Bifenthrin, 10 wt %","Solubility of Bifenthrin, 20 wt %","Solubility of Bifenthrin, 30 wt %","Solubility of Bifenthrin, 40 wt %","Solubility of Bifenthrin, 50 wt %",Compound
YES,YES,NO,NO,NO,"CCOCCOCCO [CARBITOL ™, diethylene glycol monoethyl ether]"
YES,YES,NO,NO,NO,"CCCCCCCCCCCC(=O)OCC [DIAMOSOLV ™ 323, ethyl laurate]"
YES,NO,NO,NO,NO,"CC(CO)OCC(C)Oc1ccccc1 (centres unmarked) [DOWANOL ™ DiPPH, dipropylene glycol phenyl ether]"
YES,YES,YES,NO,NO,"CC(=O)OCC(C)OC(C)=O (centres unmarked) [DOWANOL ™ PGDA, propylene glycol diacetate]"
YES,YES,NO,NO,NO,"CCCCOC(C)COC(C)COC(C)CO (centres unmarked) [DOWANOL ™ TPNB, tripropylene glycol n-butyl ether]"
YES,YES,YES,NO,NO,"CCCCOCCOC(=O)c1ccccc1 [XU40782.00, ethylene glycol n-butyl ether benzoate]"

# Same assay, conditions: bifenthrin 10 wt % in solvent; shaken 12 hours at 21° C., humidity 51%
row,Compound,"Solubility of Bifenthrin, 10 wt %"
1,"CCCCOCCOC(C)=O [BUTYL CELLOSOLVE ™ ACETATE, ethylene glycol n-butyl ether acetate]",YES
2,"OCCOc1ccccc1 [DOWANOL ™ EPH, ethylene glycol phenyl ether]",NO
3,polyethylene glycol monophenyl ether [DOWANOL ™ EPH6],NO

# Same assay, conditions: bifenthrin 20 wt % in solvent; shaken 12 hours at 21° C., humidity 51%
row,Compound,"Solubility of Bifenthrin, 20 wt %"
1,"CCCCOCCOC(C)=O [BUTYL CELLOSOLVE ™ ACETATE, ethylene glycol n-butyl ether acetate]",YES
2,"OCCOc1ccccc1 [DOWANOL ™ EPH, ethylene glycol phenyl ether]",NO
3,polyethylene glycol monophenyl ether [DOWANOL ™ EPH6],NO

# Same assay, conditions: bifenthrin 30 wt % in solvent; shaken 12 hours at 21° C., humidity 51%
row,Compound,"Solubility of Bifenthrin, 30 wt %"
1,"CCCCOCCOC(C)=O [BUTYL CELLOSOLVE ™ ACETATE, ethylene glycol n-butyl ether acetate]",YES
2,"OCCOc1ccccc1 [DOWANOL ™ EPH, ethylene glycol phenyl ether]",NO
3,polyethylene glycol monophenyl ether [DOWANOL ™ EPH6],NO

# Same assay, conditions: bifenthrin 40 wt % in solvent; shaken 12 hours at 21° C., humidity 51%
row,Compound,"Solubility of Bifenthrin, 40 wt %"
1,"CCCCOCCOC(C)=O [BUTYL CELLOSOLVE ™ ACETATE, ethylene glycol n-butyl ether acetate]",YES
2,"OCCOc1ccccc1 [DOWANOL ™ EPH, ethylene glycol phenyl ether]",NO
3,polyethylene glycol monophenyl ether [DOWANOL ™ EPH6],NO

# Same assay, conditions: bifenthrin 50 wt % in solvent; shaken 12 hours at 21° C., humidity 51%
row,Compound,"Solubility of Bifenthrin, 50 wt %"
1,"CCCCOCCOC(C)=O [BUTYL CELLOSOLVE ™ ACETATE, ethylene glycol n-butyl ether acetate]",NO
2,"OCCOc1ccccc1 [DOWANOL ™ EPH, ethylene glycol phenyl ether]",NO
3,polyethylene glycol monophenyl ether [DOWANOL ™ EPH6],NO

# Assay: not given
# Conditions: obtained from Hansen's book, pages 399 and 418; cited from earlier work
Compound,Hansen Parameter δH (hydrogen bonding),Hansen Parameter δP (polar)
"CCCCOCCOCCOC(C)=O [BUTYL CARBITOL ™ ACETATE, diethylene glycol n-butyl ether acetate]",8.2 (J/cc)^1/2,4.1 (J/cc)^1/2
"CCCCOCCOC(C)=O [BUTYL CELLOSOLVE ™ ACETATE, ethylene glycol n-butyl ether acetate]",8.8 (J/cc)^1/2,4.5 (J/cc)^1/2
